System: MDA-MB-231 multicell spheroids, viability
Assay: Anticancer human tumor MDA-MB-231 cell line growth inhibition [PI3K];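 note: spheroids exposed to agents for seven days before reading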;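 for viability, T/C: percent of vehicle control luminescence with DMSO treated spheroids as 100%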
Details: for IC50: curve of first compound; for viability, T/C: stronger effect = lower value; active = viability on the fitted dose curve at most 10% of control; inactive = the rest
Procedure, shortened: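 Tumor cells were combined with HUVEC and MSCs into spheroids, then dosed with PI3K-inhibitor combinations over half-log ranges capped near clinical Cmax or 10 microM.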

CNC(=O)c1ccc(N2C(=S)N(c3ccc(C#N)c(C(F)(F)F)c3)C(=O)C2(C)C)cc1F + CC(Nc1ncnc2nc[nH]c12)c1cc2cccc(Cl)c2c(=O)n1-c1ccccc1
> 10000 nM: IC50 (second compound 0.0316 µM) | IC50 (second compound 0.1 µM) | IC50 (second compound 0.316 µM) | IC50 (second compound 1 µM) | IC50 (second compound 3.16 µM)
89.7 nM: IC50 (second compound 10 µM)
inactive: viability, T/C (second compound 0.0316 µM, first compound 0.0316 µM) 101% | viability, T/C (second compound 0.0316 µM, first compound 0.1 µM) 110% | viability, T/C (second compound 0.0316 µM, first compound 0.316 µM) 102% | viability, T/C (second compound 0.0316 µM, first compound 1 µM) 94% | viability, T/C (second compound 0.0316 µM, first compound 3.16 µM) 97.5% | viability, T/C (second compound 0.0316 µM, first compound 10 µM) 70.3% | viability, T/C (second compound 0.1 µM, first compound 0.0316 µM) 93% | viability, T/C (second compound 0.1 µM, first compound 0.1 µM) 96% | viability, T/C (second compound 0.1 µM, first compound 0.316 µM) 105% | viability, T/C (second compound 0.1 µM, first compound 1 µM) 101% | viability, T/C (second compound 0.1 µM, first compound 3.16 µM) 95.7% | viability, T/C (second compound 0.1 µM, first compound 10 µM) 79.9% | viability, T/C (second compound 0.316 µM, first compound 0.0316 µM) 89% | viability, T/C (second compound 0.316 µM, first compound 0.1 µM) 96.8% | viability, T/C (second compound 0.316 µM, first compound 0.316 µM) 91.1% | viability, T/C (second compound 0.316 µM, first compound 1 µM) 99.2% | viability, T/C (second compound 0.316 µM, first compound 3.16 µM) 85.5% | viability, T/C (second compound 0.316 µM, first compound 10 µM) 72.9% | viability, T/C (second compound 1 µM, first compound 0.0316 µM) 81.2% | viability, T/C (second compound 1 µM, first compound 0.1 µM) 84.1% | viability, T/C (second compound 1 µM, first compound 0.316 µM) 75.4% | viability, T/C (second compound 1 µM, first compound 1 µM) 77.2% | viability, T/C (second compound 1 µM, first compound 3.16 µM) 76.3% | viability, T/C (second compound 1 µM, first compound 10 µM) 64.1% | viability, T/C (second compound 3.16 µM, first compound 0.0316 µM) 61.4% | viability, T/C (second compound 3.16 µM, first compound 0.1 µM) 59.5% | viability, T/C (second compound 3.16 µM, first compound 0.316 µM) 63.1% | viability, T/C (second compound 3.16 µM, first compound 1 µM) 61.4% | viability, T/C (second compound 3.16 µM, first compound 3.16 µM) 62.3% | viability, T/C (second compound 3.16 µM, first compound 10 µM) 51% | viability, T/C (second compound 10 µM, first compound 0.0316 µM) 49.5% | viability, T/C (second compound 10 µM, first compound 0.1 µM) 51.6% | viability, T/C (second compound 10 µM, first compound 0.316 µM) 47.3% | viability, T/C (second compound 10 µM, first compound 1 µM) 49.4% | viability, T/C (second compound 10 µM, first compound 3.16 µM) 42.3% | viability, T/C (second compound 10 µM, first compound 10 µM) 39.7%

Cn1cnc2c(F)c(Nc3ccc(Br)cc3Cl)c(C(=O)NOCCO)cc21 + CC(Nc1ncnc2nc[nH]c12)c1cc2cccc(Cl)c2c(=O)n1-c1ccccc1
208 nM: IC50 (second compound 0.0316 µM)
inactive: viability, T/C (second compound 0.0316 µM, first compound 0.00949 µM) 75% | viability, T/C (second compound 0.0316 µM, first compound 0.03 µM) 63.7% | viability, T/C (second compound 0.0316 µM, first compound 0.0949 µM) 50.3% | viability, T/C (second compound 0.0316 µM, first compound 0.3 µM) 50.5% | viability, T/C (second compound 0.0316 µM, first compound 0.949 µM) 44.5% | viability, T/C (second compound 0.0316 µM, first compound 3 µM) 31.8% | viability, T/C (second compound 0.1 µM, first compound 0.00949 µM) 72.2% | viability, T/C (second compound 0.1 µM, first compound 0.03 µM) 63.9% | viability, T/C (second compound 0.1 µM, first compound 0.0949 µM) 50.2% | viability, T/C (second compound 0.1 µM, first compound 0.3 µM) 47.5% | viability, T/C (second compound 0.1 µM, first compound 0.949 µM) 41.8% | viability, T/C (second compound 0.1 µM, first compound 3 µM) 30.6% | viability, T/C (second compound 0.316 µM, first compound 0.00949 µM) 65% | viability, T/C (second compound 0.316 µM, first compound 0.03 µM) 53% | viability, T/C (second compound 0.316 µM, first compound 0.0949 µM) 42.3% | viability, T/C (second compound 0.316 µM, first compound 0.3 µM) 41% | viability, T/C (second compound 0.316 µM, first compound 0.949 µM) 39.1% | viability, T/C (second compound 0.316 µM, first compound 3 µM) 34.6% | viability, T/C (second compound 1 µM, first compound 0.00949 µM) 56.1% | viability, T/C (second compound 1 µM, first compound 0.03 µM) 50.5% | viability, T/C (second compound 1 µM, first compound 0.0949 µM) 37.7% | viability, T/C (second compound 1 µM, first compound 0.3 µM) 39% | viability, T/C (second compound 1 µM, first compound 0.949 µM) 33.2% | viability, T/C (second compound 1 µM, first compound 3 µM) 26.8% | viability, T/C (second compound 3.16 µM, first compound 0.00949 µM) 44.7% | viability, T/C (second compound 3.16 µM, first compound 0.03 µM) 36.4% | viability, T/C (second compound 3.16 µM, first compound 0.0949 µM) 28.8% | viability, T/C (second compound 3.16 µM, first compound 0.3 µM) 27.1% | viability, T/C (second compound 3.16 µM, first compound 0.949 µM) 26.2% | viability, T/C (second compound 3.16 µM, first compound 3 µM) 19.8% | viability, T/C (second compound 10 µM, first compound 0.00949 µM) 32.8% | viability, T/C (second compound 10 µM, first compound 0.03 µM) 29.2% | viability, T/C (second compound 10 µM, first compound 0.0949 µM) 21.7% | viability, T/C (second compound 10 µM, first compound 0.3 µM) 22.6% | viability, T/C (second compound 10 µM, first compound 0.949 µM) 24% | viability, T/C (second compound 10 µM, first compound 3 µM) 12.9%
41.7 nM: IC50 (second compound 0.316 µM)
24.5 nM: IC50 (second compound 1 µM)
170 nM: IC50 (second compound 0.1 µM)
< 9.49 nM: IC50 (second compound 3.16 µM) | IC50 (second compound 10 µM)

From PubChem BioAssay AID1963958 (Molecular Pharmacology Branch, DTP, NCI, 2024)
